We go through 5 compounds from patent EP0158267A2, “Pharmaceutical composition containing 5-(2-fluorophenyl)-1,3-dihydro-3-hydroxy-7-nitro- or 5-(2-fluorophenyl)-1,3-dihydro-3-hydroxy-1-methyl-7-nitro-2H-1,4-benzodiazepin-2-one and process for their preparation” (Dolorgiet Beteiligungs-GmbH, priority 1984, dated 1985).

The test system of series [1] is Maus. Briefly: Prolongation of hexobarbital sleeping time (barbiturate narcosis, method of Fujimoto et al.). Type of series: in vivo. Conditions: for Verlängerung der Schlaf-zeit in % bei der Maus nach peroraler Gabe von 1mg/kg KG.: mouse, 1 mg/kg p.o., 30 min before 80 mg/kg hexobarbital i.v., versus control group; for schlafverlängernde Wirkung: statement in words. The procedure:
(1) Verlängerung der Schlafzeit
Die Wirkung auf die Barbiturat-Narkose wurde in der Versuchsanordnung von J.M. Fujimoto et al. (J. Pharmacol. Exp. Ther. 129, 1960, 139) nachgewiesen. Gruppen von jeweils 10 männlichen Mäusen wurden die Testsubstanzen als Suspension in wässriger Carboxymethylcellulose mittels einer Stahlsonde auf oralem Weg direkt in den Magen verabreicht. 30 Minuten später wurde den Tieren 80 mg/kg Hexobarbital in eine Schwanzvene injiziert. Es wurde die Dauer des Schlafs gemessen und aus den Schlafzeiten der einzelnen Tiere der Kontroll-und Dosisgruppen die jeweiligen Mittelwerte berechnet. Die Verlängerung der Schlafzeit wurde in Prozent gegenüber der Kontrollgruppe berechnet.

Series [2] in a line: Acute toxicity, oral, 7 days observation (Litchfield and Wilcoxon). The format is in vivo, Maus. Conditions: in vivo; mouse, oral, 7 days observation; * = highest technically applicable dose; read-out: Akute Toxi-zität LD50 mg/kg KG. Maus oral. An excerpt: (§1) Für diesen Versuch wurden je 10 männliche und weibliche Mäuse verwendet. Die Testsubstanzen wurden als Suspension in wässriger Carboxymethylcellulose per Magensonde verabreicht. Die Beobachtungszeit betrug 7 Tage. Die Ergebnisse wurden nach der Methode von G.T. Litchfield und F.G. Wilcoxon (J. Pharmacol. Exp. Ther. 96, 1949, 99) errechnet. Die Ergebnisse sind in der nachfolgenden Tabelle zusammengestellt.

The subject of series [3] is Maus. The description is as above. Type of series: in vivo. Conditions: for Zustand nach 24 h: mouse, oral, condition of animals 24 h after dosing; for Toxizität / Zustand der überlebenden Tiere: statement in words; for Zustand der überlebenden Tiere: findings above the dose without findings.
From the text: as §1

Series [4] deals with Maus. Briefly: Fighting test: inhibition of current-induced fighting (method of Tedeschi et al.). Conditions: statement in words; for tranquillisierende Wirkung im Kampftest: DP 327 compared with Flunitrazepam. Type of series: in vivo. An excerpt:
Die Hemmwirkung gegenüber strominduzierter Kampfhandlungen bei Mäusen wurde in der Versuchsanordnung von R. Tedeschi et al. (J. Pharmacol. Exp. Ther. 125, 1959, 28) ermittelt. 10 Paare weiblicher Mäuse werden am Vortag des Versuches 3 Minuten elektrischen Stromstößen von 3,5 mA, 5 Hz und 5 msec ausgesetzt. Am Versuchstag werden die Testsubstanzen als Suspension in wässriger Carboxymethylcellulose mittels Magensonde peroral verabreicht. 30 Minuten nach der Verabreichung werden jeweils ein Paar in einem Testkäfig wieder den Stromstößen ausgesetzt und die innerhalb von 3 Minuten ausgelösten Kampfhandlungen gezählt. Die Zahl der Kampfhandlungen der jeweiligen Dosisgruppen werden addiert und in Prozent gegenüber der Kontrollgruppe berechnet. Der ED50-Wert wurde mittels halblogarithmischer Regression aus den Dosis-Wirkungsbeziehungen bestimmt.

Series [5] in a line: Sleep induction (onset), no method described. Conditions: statement in words. Type of series: in vivo.
Setting [6] is: DP 327 compared with Flunitrazepam, Beispiel 12 of DE-OS 14 45 873 compared with DP 327.

Where only a bound is given, the exact number is not on record here.

For `CN1C(=O)C(O)N=C(c2ccccc2)c2cc([N+](=O)[O-])ccc21` (centres unmarked) [DE-OS 14 45 873 Beispiel 12, reference compound], the “Verlängerung der Schlaf-zeit in % bei der Maus nach peroraler Gabe von 1mg/kg KG.” value in the series with Maus [1] was 99%. Besides, the “schlafverlängernde Wirkung” value in the series on Maus [1] (setting [6]) is “geringerer schlafverlängernder Wirkung”. The LD50 at 168 h in series [2] was determined as 4700 mg/kg. In addition, in the series with Maus [3], the “Zustand nach 24 h” value is reported as “bis 3200 mg/kg ohne Befund; ab 3200 mg/kg starke Sedierung, Koma” and the Toxizität result is recorded as “toxischer als DP 327”.
As to `CN1C(=O)C(O)N=C(c2ccccc2F)c2cc([N+](=O)[O-])ccc21` (centres unmarked) [DP 327, 5-(2-Fluorphenyl)-1,3-dihydro-3-hydroxy-1-methyl-7-nitro-2H-1,4-benzodiazepin-2-on], in the series with Maus [1], the “Verlängerung der Schlaf-zeit in % bei der Maus nach peroraler Gabe von 1mg/kg KG.” value turned out to be 156%. Besides, the “schlafverlängernde Wirkung” value in the series on Maus [1] (compared with Lormetazepam) is listed as “deutlich überlegen”. Further, the “schlafverlängernde Wirkung” value with Maus [1] (setting [6]) is on record as “gleichwertig”. Besides, the “tranquillisierende Wirkung” value in the series on Maus [4] (compared with Lormetazepam) is given as “deutlich überlegen”. Moreover, the “tranquillisierende Wirkung im Kampftest” value with Maus [4] is “etwa doppelt so starke tranquillisierende Wirkung”. The LD50 at 168 h in series [2] was more than 8690 mg/kg. Also, in the series on Maus [3], the “Zustand nach 24 h” value is listed as “bis 3600 mg/kg ohne Befund; 4824-8687 mg/kg leichte Sedierung”, the Toxizität entry was “sehr wenig toxisch” and the “Zustand der überlebenden Tiere” value is reported as “nur eine leichte Sedierung und Stereotypie”. In addition, the Toxizität entry in the series with Maus [3] (compared with Lormetazepam) is recorded as “deutlich überlegen”. Also, the Todesfälle entry with Maus [3] (up to the highest applicable dose of 8687 mg/kg) is “nur vereinzelt Todesfälle”. Also, in series [5], the Schlafinduktion entry is recorded as “rasche Schlafinduktion”.
Turning to `O=C1Nc2ccc([N+](=O)[O-])cc2C(c2ccccc2F)=NC1O` (centres unmarked) [DP 370, 5-(2-Fluorphenyl)-1,3-dihydro-3-hydroxy-7-nitro-2H-1,4-benzodiazepin-2-on], the “Verlängerung der Schlaf-zeit in % bei der Maus nach peroraler Gabe von 1mg/kg KG.” value with Maus [1] was 118%. The “schlafverlängernde Wirkung” value in the series on Maus [1] (setting [6]) is reported as “gute schlafverlängerde Wirkung”. In the series with Maus [4], the “tranquillisierende Wirkung im Kampftest” value was “gute tranquillisierende”. Also, the LD50 at 168 h in series [2] is more than 10000 mg/kg. In the series on Maus [3], the “Zustand nach 24 h” value is listed as “bis 4640 mg/kg ohne Befund; ab 4640 mg/kg leichte Sedierung Sedierung, und Ataxie” and the Toxizität entry was “wesentlich geringeren Toxizität als die genannten Vergleichssubstanzen”.
In the case of `CN1C(=O)CN=C(c2ccccc2F)c2cc([N+](=O)[O-])ccc21` [Flunitrazepam, 5-(2-Fluorphenyl)-1,3-dihydro-1-methyl-7-nitro-2H-1,4-benzodiazepin-2-on, reference compound], in the series on Maus [1], the “Verlängerung der Schlaf-zeit in % bei der Maus nach peroraler Gabe von 1mg/kg KG.” value is 179%. For the same compound, the LD50 at 168 h in series [2] is 2700 mg/kg. Also, in the series on Maus [3], the “Zustand nach 24 h” value is listed as “bis 1100 mg/kg ohne Befund; ab 1100 mg/kg starke Sedierung, Koma, Stereotypie” and the “Zustand der überlebenden Tiere” value is listed as “von starker Sedierung und Stereotypie bis zum Koma”. Besides, the Schlafinduktion entry in series [5] is reported as “langsam einsetzt”.
In the case of `CN1C(=O)C(O)N=C(c2ccccc2Cl)c2cc(Cl)ccc21` (centres unmarked) [Lormetazepam, 7-Chlor-5-(2-chlorphenyl)-1,3-dihydro-3-hydroxy-1-methyl-2H-1,4-benzodiazepin-2-on, reference compound], in the series with Maus [1], the “Verlängerung der Schlaf-zeit in % bei der Maus nach peroraler Gabe von 1mg/kg KG.” value worked out at 78%. Further, the LD50 at 168 h in series [2] came out at 6300 mg/kg. In addition, the “Zustand nach 24 h” value with Maus [3] is reported as 900-1240 mg/kg leichte Sedierung; ab 1700 mg/kg zunehmend starke Sedierung. Also, the Schlafinduktion entry in series [5] is given as “fehlt”.
